From ChEMBL document CHEMBL4190257, “Discovery of phenylsulfonyl acetic acid derivatives with improved efficacy and safety as potent free fatty acid receptor 1 agonists for the treatment of type 2 diabetes” (Eur J Med Chem, 2017) come the findings set out here.

The structures appear in SMILES notation. Calls of active or inactive are those of the source. The rule behind the calls is not given here.

Data set [1] has as its system Rattus norvegicus. Put plainly: Antidiabetic activity in po dosed Sprague-Dawley rat assessed as reduction in blood glucose AUC (0 to 120 mins) administered as single dose followed by subsequent glucose challenge at 60 mins post administration by OGTT method. The format is functional.
The nature of data set [2]: Drug metabolism in Sprague-Dawley rat plasma assessed as 2-(2-(4-((2'-chlorobiphenyl-3-yl)methoxy)phenylsulfonyl)acetamido)ethanesulfonic acid formation at 10 mg/kg, po measured up to 24 hrs post dose by LC-PDA-MS/MS analysis. The format is ADME, organism-based. As to conditions: in vivo.
Data set [3] has as its system Rattus norvegicus. Put plainly: Antidiabetic activity in po dosed Sprague-Dawley rat assessed as increase in insulin secretion administered as single dose followed by subsequent glucose challenge at 60 mins post administration measured up to 120 mins post dose by ELISA. In kind it is functional, organism-based. For orientation: An ELISA detects its analyte on a solid surface through an enzyme-linked reagent.

In data set [4] the test system is Mus musculus. Put plainly: Antihyperglycemic activity in high fat diet fed/streptozotocin-induced type 2 diabetic C57BL/6 mouse model assessed as reduction in plasma glucose AUC (0 to 120 mins) at 20 mg/kg, po administered as single dose followed by subsequent glucose challenge at 60 mins post administration by OGTT method. The format is functional, organism-based.

Data set [5] has as its system Mus musculus. Put plainly: Renal toxicity in ICR mouse assessed as serum creatinine level at 30 mg/kg, dosed daily via oral gavage for 30 days (reference value: 40.9 +/- 2.6 umol/L). The format is organism-based. To be noted: in vivo, 720 h.
The nature of data set [6]: Octanol/phosphate buffer distribution coefficient, log D of the compound at 100 uM at pH 7.4 after 24 hrs by shake flask method. The format is physicochemical.
Data set [7] relates to Mus musculus. Put plainly: Hepatotoxicity in ICR mouse assessed as serum AST level at 30 mg/kg, dosed daily via oral gavage for 30 days (reference value: 135.6 +/- 15.2 IU/L). The format is toxicity, organism-based. To be noted: in vivo, 720 h.
The nature of data set [8]: AUC (0 to 24 hrs) in fasted Sprague-Dawley rat at 10 mg/kg, po administered as single dose measured up to 24 hrs post dose by LC-PDA-MS/MS analysis. To be noted: in vivo. In kind it is ADME, organism-based. On the set-up: time < 24 hr, dose 10 mg/kg, route oral.
Data set [9] has as its target T1, Free fatty acid receptor 1 (Homo sapiens, UniProt O14842). Put plainly: Agonist activity at human FFA1 receptor expressed in CHO cells assessed as increase in intracellular calcium flux by Fluo 4AM dye-based FLIPR assay. In kind it is functional, cell-based. (Calcium assays in cells follow changes in intracellular calcium, usually with a dye or a luminescent sensor.)

Data set [10] is described as follows: Drug metabolism in Sprague-Dawley rat plasma assessed as (2S,3R,4S,5S,6R)-3,4,5-trihydroxy-6-(hydroxymethyl)tetrahydro-2H-pyran-2-yl 2-(4-((2'-chlorobiphenyl-3-yl)methoxy)phenylsulfonyl)acetate formation at 10 mg/kg, po measured up to 24 hrs post dose by LC-PDA-MS/MS analysis. In kind it is ADME, organism-based. To be noted: in vivo.
Data set [11] relates to Rattus norvegicus. Put plainly: Antidiabetic activity in po dosed Sprague-Dawley rat assessed as reduction in plasma glucose excursion administered as single dose followed by subsequent glucose challenge at 60 mins post administration measured up to 120 mins post dose by OGTT method. The format is functional, organism-based.
A short description of data set [12]: Half life in fasted Sprague-Dawley rat at 10 mg/kg, po administered as single dose measured up to 24 hrs post dose by LC-PDA-MS/MS analysis. The format is ADME, organism-based. As to conditions: in vivo.
Data set [13] is described as follows: Cmax in fasted Sprague-Dawley rat at 10 mg/kg, po administered as single dose measured up to 24 hrs post dose by LC-PDA-MS/MS analysis. In kind it is ADME, organism-based. Set-up: dose 10 mg/kg, route oral. As to conditions: in vivo.
Data set [14] deals with Rattus norvegicus. The data set can be described thus: Hypoglycemic effect in fasting Sprague-Dawley rat at 30 mg/kg, po measured up to 180 mins post dose. As to conditions: in vivo, 3 h. The format is ADME, organism-based.
The subject of another data set is HepG2. Put plainly: Apoptotic cytotoxicity in human HepG2 cells assessed as caspase-3/7 activity at 30 uM after 24 hrs by caspase-glo-3/7 assay relative to staurosporine. The format is cell-based. As to conditions: hepg2, 24 h.
Data set [15] is described as follows: Clearance in fasted Sprague-Dawley rat at 10 mg/kg, po administered as single dose measured up to 24 hrs post dose by LC-PDA-MS/MS analysis. In kind it is ADME, organism-based. To be noted: in vivo.
Data set [16] is described as follows: Drug metabolism in Sprague-Dawley rat plasma assessed as beta-oxidation metabolite formation at 10 mg/kg, po measured up to 24 hrs post dose by LC-PDA-MS/MS analysis. The format is ADME, organism-based. To be noted: in vivo.
In data set [17] the test system is Mus musculus. Put plainly: Renal toxicity in ICR mouse assessed as BUN level at 30 mg/kg, dosed daily via oral gavage for 30 days (reference value: 7.4 +/- 1.6 mmol/L). The format is organism-based. To be noted: in vivo, 720 h.
Data set [18] has as its system Mus musculus. Put plainly: Hepatotoxicity in ICR mouse assessed as serum TBIL level at 30 mg/kg, dosed daily via oral gavage for 30 days (reference value: 4.3 +/- 1.3 IU/L). The format is toxicity, organism-based. To be noted: in vivo, 720 h.
Data set [19] in a line: Drug metabolism in Sprague-Dawley rat plasma assessed as cytochrome P450-mediated 2'-chlorobiphenyl-3-carboxylic acid formation at 10 mg/kg, po measured up to 24 hrs post dose by LC-PDA-MS/MS analysis. The format is ADME, organism-based. As to conditions: in vivo.
Data set [20] has as its system Mus musculus. The data set can be described thus: Hepatotoxicity in ICR mouse assessed as serum ALT level at 30 mg/kg, dosed daily via oral gavage for 30 days (reference value: 34.7 +/- 5.6 IU/L). As to conditions: in vivo, 720 h. In kind it is toxicity, organism-based.
The target in data set [21] is T1, Free fatty acid receptor 1. Put plainly: Agonist activity at human FFA1 receptor expressed in CHO cells assessed as increase in intracellular calcium flux at 10 uM by Fluo 4AM dye-based FLIPR assay relative to TAK-875. In kind it is functional, cell-based.
The subject of data set [22] is Rattus norvegicus. Put plainly: Antidiabetic activity in po dosed Sprague-Dawley rat assessed as increase in blood insulin AUC (0 to 120 mins) administered as single dose followed by subsequent glucose challenge at 60 mins post administration by ELISA method. In kind it is functional.

T1 sequence (O14842 whole entry): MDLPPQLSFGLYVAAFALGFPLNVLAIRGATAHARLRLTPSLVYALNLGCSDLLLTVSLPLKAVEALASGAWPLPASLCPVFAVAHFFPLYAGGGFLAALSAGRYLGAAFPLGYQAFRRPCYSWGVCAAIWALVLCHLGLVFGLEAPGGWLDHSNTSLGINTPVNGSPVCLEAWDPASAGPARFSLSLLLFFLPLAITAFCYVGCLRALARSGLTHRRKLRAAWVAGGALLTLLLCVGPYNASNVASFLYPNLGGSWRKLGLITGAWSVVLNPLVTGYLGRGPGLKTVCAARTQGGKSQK

In the case of `O=C(O)CS(=O)(=O)c1ccc(OCc2cccc(-c3ccccc3Cl)c2)cc1`, the MEC in the data set on Rattus norvegicus [1] and in the data set with Rattus norvegicus [22] was 3 mg/kg each time. The Drug metabolism entry in [2], in data set [10], in [16] and in [19] was “Metabolite_Detected” in each case. Besides, the Activity result with Rattus norvegicus [3] was “Dose-dependent effect”; in the data set with Mus musculus [5], 41.4 µmol/L; with Mus musculus [7], 128.2 IU/L; in the data set with Rattus norvegicus [11] it was “Dose-dependent effect”; in the data set with Rattus norvegicus [14], “Non-Toxic”; in the data set with HepG2, -1.6%. In addition, the Activity with Mus musculus [17] turned out to be 7.9 mmol/L; in the data set with Mus musculus [18], 4.1 IU/L; with Mus musculus [20], 35.4 IU/L. Besides, in the data set with Mus musculus [4], the outcome was Active. In addition, in data set [6], the logD (in general, lipophilicity at a set pH, counting ionised and neutral species) at 24 h, 100 µM is 2.47. Also, in [8], the AUC(0-t) (as a rule, exposure summed from dosing to a finite time, without extrapolation to infinity) at 24 h came out at 30200 ng·h/mL. Also, the EC50 (as a rule, the concentration that produces a half-maximal response) in data set [9] is 28.8 nM. In [12], the half-life (in general, how long it takes for the measured level to halve) is 5.57 h. Also, the Cmax (commonly the highest concentration seen after dosing) in data set [13] amounted to 2560 ng/mL. The CL/F (in general, the apparent clearance, not corrected for the fraction that reaches the circulation) in [15] was 2.57 mL/min/kg. Besides, in [21], the Efficacy was 115%.
